Consider 64 molecules from PubChem BioAssay AID1324 (NMMLSC, 2008).

SMILES strings stand for the structures. Activity calls are given as the source filed them. No rule for the calls is given here.

The target of the first assay is glutathione S-transferase (GST-GSH binding). The assay is described as follows: GST–glutathione interaction disruption – biochemical, multiplex beads, flow cytometry, HPSMTB buffer, profiling panel (AID 1324).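 Also: glutathione beads loaded with GST-green fluorescent protein and no fluorescent Bim peptide.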 To be noted: multiplex bead flow cytometry, MCF. A general note: Flow cytometry measures light scatter and fluorescence of single cells or particles in a stream.
`COc1ccc2nc(-c3ccco3)c(-c3ccco3)nc2c1`: the EC50 – broadly, the concentration at which the effect is half-maximal – was “inactive”. Same read-out and setting: under `COc1cc2[nH]c(=S)nc(NCC3CCCO3)c2cc1OC` (centres undefined) stands “inactive”. Same read-out and setting: under `COCCCNc1nc(=S)[nH]c2cc(OC)c(OC)cc12` stands 5.35 µM. On the same count and under the same terms, under `CN(/N=C/C=C/c1ccccc1)C1=NS(=O)(=O)c2ccccc21` stands 2.52 µM; under `CCOC(=O)c1c2c3c(cccc3[nH]c1=O)C(=O)c1ccccc1-2`, “inactive”.

The assay is the same for the next values; noted with them: multiplex bead flow cytometry, MCF, active compounds read high, concentration not given here.
Consider `CCOc1cc(/C=N/NC(N)=O)ccc1OCC(=O)Nc1ccc(C)c(C)c1`, for which the percent span inhibition result was “inactive”. In the case of `CS(=O)(=O)NN1C(=O)c2ccccc2NC1c1ccccc1` (centres undefined), the percent span inhibition result was “inactive”. Take `CCN1CCN(CC(=O)c2c[nH]c3ccc(C)cc23)CC1`: the percent span inhibition result is “inactive”. On the same count and under the same terms, under `COc1ccc(NC(=O)c2c(F)cccc2F)cc1S(=O)(=O)Nc1ccc(Br)cc1` stands “inactive”; under `Cc1ccnc(NS(=O)(=O)c2ccc(NC(=O)c3c(-c4ccccc4Cl)noc3C)cc2)n1`, “inactive”. With `O=C(CSc1ccc2nnc(-c3ccccn3)n2n1)Nc1nccs1`, the percent span inhibition result was “inactive”.

As to `Cc1noc(C)c1COc1ccc(C(=O)Nc2cccnc2)cc1`, the percent span inhibition entry is “inactive”. With `CC1=NN(c2ccc(C)cc2)C(=O)/C1=C\c1ccc(Br)s1`, the percent span inhibition entry was “inactive”. The same measure, in the same setting: under `Cc1ccc(-n2c(CSc3nc(C)cc(C)n3)nnc2SCC(=O)NCc2ccco2)cc1` stands “inactive”. Take `Cc1ccc(-c2cc(C(=O)OCC(=O)N(C)C3CCS(=O)(=O)C3)c3ccccc3n2)o1` (centres undefined): the percent span inhibition result was “inactive”. As for `Cc1c(NC2=C(Cl)C(=O)N(c3ccccc3Cl)C2=O)c(=O)n(-c2ccccc2)n1C`, the percent span inhibition result is “inactive”. Take `CC(CCc1ccccc1)NC(=O)C1CCN(S(=O)(=O)N2CCCCC2)CC1` (centres undefined): the percent span inhibition entry is “inactive”. For `COc1ccc(NC(=O)/C(C#N)=C/c2c(C)nn(-c3ccc(F)cc3)c2Cl)cc1Cl`, the percent span inhibition result is “inactive”. In the case of `Cc1nc(NC(=O)CC(C)C)sc1-c1csc(Nc2ccc(Cl)cc2)n1`, the percent span inhibition entry was “inactive”. Regarding `Cc1ccc(/C=C/C(=O)c2ccccc(=O)c2O)c(C)c1`, the percent span inhibition entry was “inactive”. On the same count and under the same terms, under `CCOc1ccccc1C(=O)NC1CC2CCCC(C1)N2C1CC1` (centres undefined) stands “inactive”; under `Cc1nc(=S)c2ccccc2[nH]1`, “inactive”; under `CCOc1cc(NC(=S)NC)c(OCC)cc1NC(=O)c1ccc(OC)cc1`, “inactive”. On the same count and under the same terms, under `O=c1nc2c(O)cccn2c2c1c(=O)[nH]c1ccccc12` stands “inactive”. Same read-out and setting: under `COc1ccc(OC)c(NC(=O)CCCN2C(=S)NC(C)(C)CC2C)c1` (centres undefined) stands “inactive”.

On to `CCC(=O)N(CC)C1=C(O)c2ccccc2C(=O)C1=O`, for which the percent span inhibition result was “inactive”. The same measure, in the same setting: under `Cc1ccc(C)c(N2CCN(C(=S)Nc3ccc4nc(N5CCN(C)CC5)cc(C)c4c3)CC2)c1` stands “inactive”; under `COc1ccc(CN(CC(=O)NC2CCCC2)C(=O)CCC(=O)Nc2cc(C)on2)cc1`, “inactive”; under `Cc1ccc(C(=O)CCC(=O)Nc2ccc(Cl)c(S(=O)(=O)Nc3cccc(Cl)c3)c2)cc1`, “inactive”.

With `CCCn1c(N2CCN(C)CC2)nc2c1c(=O)[nH]c(=O)n2C`, the percent span inhibition result is “inactive”. For `CCOC(=O)C1=C(Cc2ccc(C)cc2)C(=O)c2ccccc2C1=O`, the percent span inhibition entry is “inactive”.

In the case of `CN(C)C(=O)N1CCC(C(=O)NC2CCCCCCC2)CC1`, the percent span inhibition result is “inactive”.

`O=C(NCCCN1CCCC1=O)NC1CCCCC1`: the percent span inhibition entry is “inactive”. The same measure, in the same setting: under `CN1/C(=C\C(=O)Nc2ccc(Cl)cc2)C(C)(C)c2ccccc21` stands “inactive”. With `Cc1ccc(/C=C2/NC(=O)N(Cc3ccc(Br)cc3)C2=O)o1`, the percent span inhibition result is “inactive”. `O=c1[nH]c(SCc2nc3ccccc3c(=O)n2-c2ccccc2C(F)(F)F)nc2ccccc12`: the percent span inhibition entry is “inactive”. As for `COC(=O)CSc1nccc(-c2cccs2)n1`, the percent span inhibition entry is “inactive”. On the same count and under the same terms, the result for `Cc1nc2scc(-c3ccccc3)c2c(=O)n1N=C1C=CC(=O)C=C1` reads “inactive”; that for `C=CCN1C(=O)/C(=C/c2ccsc2)SC1=S`, “inactive”. For the molecule `CNc1ccc(Br)cc(C(=O)/C=C/c2ccc(OC)cc2OC)c1=O`, the percent span inhibition entry is “inactive”. As for `Cc1cccc(OCC(=O)NCC(=O)N/N=C/c2cc(Br)ccc2OCc2ccccc2)c1`, the percent span inhibition result was “inactive”.

For the molecule `CN(C)c1ccc(C(=O)/C=C/c2ccc(Br)cc2)cc1`, the percent span inhibition result is “inactive”. Turning to `Clc1nc2ccccc2cc1/C=N/Nc1nc2ccccc2[nH]1`, the percent span inhibition entry was “inactive”.

With `COc1ccccc1OCc1ccc(C(=O)Nc2ccccc2F)cc1`, the percent span inhibition entry was “inactive”. Same read-out and setting: under `Cc1ccc(C2=N/C(=C/c3cccs3)C(=O)N2Nc2ccccc2)cc1` stands “inactive”; under `O=C(c1cc2ccccc2oc1=O)N(c1ccccc1)C1C=CS(=O)(=O)C1` (centres undefined), “inactive”; under `Cc1ccccc1-n1nc(SCC(=O)O)sc1=S`, “inactive”. For the molecule `COc1ccc(/C=C/C(=O)c2cc(Br)ccc(=O)c2O)cc1`, the percent span inhibition result is “inactive”.

Consider `COC(=O)CCC(=O)Nc1sc(C)c(C)c1C(N)=O`, for which the percent span inhibition entry was “inactive”. On the same count and under the same terms, under `c1ccc(-c2nnc(OCCN3CCOCC3)c3ccccc23)cc1` stands “inactive”. In the case of `COc1ccccc1Cn1nnc2c(=O)[nH]c(C3CCN(C(=O)c4ccc(C)cc4)CC3)nc21`, the percent span inhibition entry is “inactive”. Same read-out and setting: the result for `CCOc1ccccc1-n1c(=O)c2ccccc2c2ccccc2c1=O` reads “inactive”. For the molecule `CNc1ccccc(C(=O)/C=C/c2ccccc2OC)c1=O`, the percent span inhibition result was “inactive”. Same read-out and setting: the result for `S=C(Nc1ccc(N2CCOCC2)cc1)Nc1ccc2nc(-c3ccco3)c(-c3ccco3)nc2c1` reads “inactive”; that for `Cc1noc(C)c1CN1C(=O)NC(Cc2ccccc2)(Cc2ccccc2)C1=O`, “inactive”; that for `C=CCn1c(C)cc(-c2csc(NC)n2)c1C`, “inactive”. `O=C(NCc1ccccc1)c1ccc2nc(-c3ccco3)c(-c3ccco3)nc2c1`: the percent span inhibition result is “inactive”. The same measure, in the same setting: under `Cc1ccc(C)n1-c1cccc(C(=O)O)c1` stands “inactive”. Same read-out and setting: under `Cc1[nH]n(C(N)=S)c(=O)c1N=Nc1ccc(S(=O)(=O)N2CCCCCC2)cc1` stands “inactive”.

For the molecule `Cc1nonc1NC(=O)CSc1nnc(-c2ccoc2C)n1C`, the percent span inhibition result is “inactive”. Same read-out and setting: the result for `CC(C)NS(=O)(=O)c1ccc(OCC(=O)Nc2ccc(F)cc2)cc1` reads “inactive”. Regarding `O=C(Nc1n[nH]c(C(F)(F)F)n1)C1CC1`, the percent span inhibition result was “inactive”. Still for that read-out and setting: the result for `CCOc1ccccc1NC(=O)CSc1ccc2nnc(-c3cccnc3)n2n1` reads “inactive”; that for `Cc1cc2nn(-c3cccc4ccccc34)nc2cc1N`, “inactive”.
